Patent US9365851B2, “Spalt-like transcription factor 4 (SALL4) and uses thereof” (National University of Singapore, priority 2011, dated 2016)
Read-outs that look alike come from different tables or passages of the source.

What was measured:
HDAC1 and HDAC2 = assay: Anti-FITC pull-down of FITC-labeled peptides from SNU-398 nuclear extracts, Western blot for HDAC1/HDAC2; format: binding, human; conditions: anti-FITC IP
Method: For the pull down assay FITC-labeled version of the peptides and anti-FITC antibody (Santa Kruz, Calif.) was used. The antibody was immobilized covalently on the surface of Dinabeads (Invitrogen). The magnetic beads were than used in the pull down reaction according to the instruction of the manufacturer with the following minor modifications: 1 mM DTT, 0.1 mM NaF, 1 mM PMSF, 1 mM Na orthovanadate, and 1:100 final dilution of protease inhibitor, (Sigma Co.) was added to the extraction buffer. The NaCl concentration was optimized to 100 mM. Eluted proteins were submitted to Western blotting using standard procedure and the protein bands were visualized using antibodies to HDAC1 and 2 (Sigma)
(§1) Next tested was whether this wt 12-AA could compete with SALL4 in interacting with NuRD. A hepatocellular carcinoma cell line SNU-398 with abundant SALL4 expression was chosen for the following groups of experiences. Whether the wt 12-AA or its control (Mut and Scr) can bind to HDAC1 and HDAC2, the two NuRD components, was first evaluated. […] The histone deacetylase activity of the peptide pull-down complex was then measured using a Fluorescent Assay kit (Active Motif) (FIG. 1D). The active enzymatic activity of the HDACs tested by this assay corresponds to the amount of the HDAC proteins in the sample.
First evaluated was whether the wild type peptide or the mutant or scrambled controls could bind to HDAC1 and HDAC2, which comprise part of the NuRD complex 38. The hepatocellular carcinoma (HCC) cell line SNU-398 expresses abundant amount of SALL4 and was chosen for the following 9 experiments. […] To test this possibility, the histone deacetylase activity of the peptide pull-down complex was measured using a fluorescent assay kit (FIG. 8C). The active enzymatic activity of the HDACs tested by this assay corresponded to the amount of the HDAC proteins in the sample.

PC9 cells = assay: Peptide treatment of lung cancer cells; format: cell-based
Description: 56B: Cell image after SALL4 knockdown in H522 cells.
A small peptide has been generated to block the oncogenic function of SALL4. […] Therefore, shown herein is that SALL4 plays a crucial role in tumor initiation and development of NSCLC, and targeting SALL4 may provide an innovated therapeutic approach in the treatment of lung cancer.

HDAC = HDAC activity assay of peptide pull-down complex (SNU-398 nuclear extracts); format: biochemical, human; conditions: compared to IgG control
Method: Assay was performed with the Fluorescent HDAC Assay Kit (Active Motif) having the following modifications: Following the pull down described in Western Blotting section the proteins bound to the beads were eluted in buffer containing 20 mM HEPES (pH 7.5) 350 mM NaCl, 20% glycerol, 1% Igepal CA-630, 1 mM MgCl2, 5 mM DTT and Protease inhibitors (Sigma). The eluates were used as an HDAC enzyme source in an enzymatic reaction for 2 h at 37 C. The HDAC reactions were performed twice on various samples, and each time in triplicate.
as §1, with “The active enzymatic activity of the HDACs tested by this assay corresponds to the amount of the HDAC proteins in the sample.” left out
First evaluated was whether the wild type peptide or the mutant or scrambled controls could bind to HDAC1 and HDAC2, which comprise part of the NuRD complex 38. […] To test this possibility, the histone deacetylase activity of the peptide pull-down complex was measured using a fluorescent assay kit (FIG. 8C). […]

MCF7 cells = assay: Cell viability assay (MTT); format: cell-based; conditions: MCF7, 48-72 h
Method: (§2) Cell viability assay (MTT) (Invitrogen) was performed according to the manufacturer's instructions. Briefly—10000 cells were seeded in 100 ul medium in 96 well plates. The next day cells were treated as indicated on the figures. At the designated time after the treatment 20 ul of 5 mg/ml MTT solution was added to each well. After 3.5 h incubation at 37 C the medium was removed and the reaction was terminated with a solution of 4 mM HCl, 0.1% Nondet P-40 (NP40) all in isopropanol in dark on orbital shaker for […]. at room temperature. The absorbance was read at 590 nm with a reference filter of 620 nm in Spectromax M3 (ABI) spectrophotometer.
Multiple cell lines with or without SALL4 expression were chosen to test the biological effect(s) of this wt peptide. Wt or its control (Scr or Mut) peptide was delivered into tumor cells at various concentrations, and their effects on cells were evaluated at 48 or 72 hours post treatment by a MTT assay (Manufacture name). […] Since, as proposed herein, wt peptide can compete with SALL4 and release it from recruiting HDAC complex NuRD, the wt peptide would likely work as a HDAC inhibitor. Therefore, as a positive control, TSA, a broad HDAC inhibitor, was used in the same group of experiments along with the wt and Scr peptide.

HuH-7 cells = assay: Cell viability assay (MTT/MTS); format: cell-based, human; conditions: HuH-7, 72 h
Method: as §2
Multiple leukemic and solid tumor cancer cell lines with high or low/no SALL4 expression (FIG. 10A) were chosen to test the biological effect(s) of the wild type peptide. Wild type or scrambled peptide was delivered into tumor cells at various concentrations, and their effects on cells were evaluated 72 hours post-treatment by the MTS cell viability assay. […] The effect of wild type peptide is SALL4-specific, as it had no effect on KBM5, an AML cell line with undetectable endogenous SALL4 expression. We were surprised to see that the wild type peptide had no effect on a high SALL4-expressing endometrioid cancer cell line, AN3CA. This prompted checking whether PTEN, a gene repressed by SALL4 through its interaction with NuRD 27, was present in this cell line. According to the model herein, the function of wild type peptide requires both the expression of SALL4 and intact SALL4 downstream target genes, such as PTEN. In tumor cells with PTEN deletion, even though wild type peptide could compete with endogenous SALL4 in interacting with the HDAC complex, an anti-proliferative effect might not be observed. Therefore, expression of PTEN was evaluated in AN3CA cells along with other cell lines. […]
7000 cells were seeded in each wells of a microtiter plate in 100 μL of complete medium. […] After four hours incubation of the tetrazolium salt, absorbance at 490 nm was read by a microplate reader.

## Scr peptide: same 12 amino acids as the wt peptide, but in a scrambled sequence; negative control (SRMRQKIHPKIQ) [reference compound]
HDAC1 and HDAC2
  HDAC1 and HDAC2 detected in peptide pull-down: never
HDAC1 and HDAC2; listed as scrambled peptide
  HDAC1 and HDAC2 detected in peptide pull-down: undetectable
PC9 cells
  cell growth / cell death: no effect on the cells
HDAC
  HDAC activity of peptide pull-down complex: no HDAC activity
MCF7 cells
  cell viability: remained unaffected
HuH-7 cells
  cell viability: remained unaffected

## H-MSRRKQAKPQHI-OH [wt peptide, MSRRKQAKPQHI]
HDAC1 and HDAC2; listed as wild type peptide
  HDAC1 and HDAC2 detected in peptide pull-down: easily detected
HDAC1 and HDAC2; listed as wt
  HDAC1 and HDAC2 detected in peptide pull-down: detected
PC9 cells; listed as Wt
  cell growth / cell death: cell growth arrest
PC9 cells; listed as small peptide
  cell growth / cell death: resulted in cell death
HDAC
  HDAC activity of peptide pull-down complex: the most HDAC activity
MCF7 cells
  cell viability: decreased cell viability
MCF7 cells; listed as wild type peptide
  cell viability: displayed the same effect
HuH-7 cells
  cell viability: reduced the cell viability
HuH-7 cells; listed as wild type peptide
  cell viability: decreased cell viability
